Experimental data published in patent US20090023704A1, “Novel Compounds 737” (ASTRAZENECA AB, priority 2007, published 2009).

target: T1, GABAB receptor (GABABR1a/GABABR2 heterodimer) (Homo sapiens, UniProt O75899+Q9UBS5); test: [35S]-GTPγS binding assay, potency of PAM (GABA dose-response curves with and without test compound); type: biochemical; conditions: potency of the positive allosteric modulator; GABA dose-response in presence of test compound
T1 construct: expressed in transfected cells
Source text: GABABR1a and GABABR2 were cloned from human brain cDNA and subcloned into pCI-Neo (Promega) and pALTER-1 (Promega), respectively. A GABABR1a-Gαqi5 fusion protein expression vector was constructed using the pCI-Neo-GABABR1a cDNA plasmid and pLEC1-Gαqi5 (Molecular Devices, CA). In order to make the Gαqi5 pertussis toxin insensitive, Cys356 was mutated to Gly using standard PCR methodology with the primers 5′-[…]-3′ (forward) and 5′-GCGGCCG […]-3′ (reverse). The Gαqi5mut cDNA was ligated into the BamHI and NotI sites of pcDNA3.0 (Invitrogen). The GABAB R1a coding sequence was amplified by PCR from pCI-Neo-GABABR1a using the primers, 5′-[…]-3′ (forward) and 5′-[…]-3′ (reverse) and subcloned into the BamHI site of pcDNA3.0-Gαqi5mut.
For generation of a cell line expressing the GABABR1a/GABABR2 heterodimer, GABABR1a plasmid DNA (4 μg) GABABR2 plasmid DNA (4 μg) and lipofectamine (24 μl) were mixed in 5 ml OptiMEM and incubated for 45 minutes at room temperature. The cells were exposed to the transfection medium for 5 hours, which then was replaced with culture medium. The cells were cultured for an additional 10 days before selection agents (300 μg/ml hygromycin and 400 μg/ml geneticin) were added. Twenty-four days after transfection, single cell sorting into 96-well plates by flow cytometry was performed using a FACS Vantage SE (Becton Dickinson, Palo Alto, Calif.). After expansion, the GABAB receptor functional response was tested using the FLIPR assay described below. The clone with the highest functional response was collected, expanded and then subcloned by single cell sorting. The clonal cell line with the highest peak response in the FLIPR was used in the present study.
For generation of a stable cell line expressing GABABR1a-Gαqi5 fusion protein and GABABR2, GABABR1a-Gαqi5mut plasmid DNA (8 μg) GABABR2 plasmid DNA (8 μg) and lipofectamine (24 μl) were mixed in 5 ml OptiMEM and incubated for 45 minutes at room temperature. The cells were exposed to the transfection medium for 5 hours, which then was replaced with culture medium. After forty-eight hours, the cells were detached and seeded in 6 well plates (2000 cells/well) and grown in culture medium supplemented with geneticin (400 μg/ml) and zeocin (250 μg/ml). After 4 days, cells from single colonies were collected and transferred to a 24-well plate. After 10 days, the cell clones were seeded in T-25 flasks and grown for another 16 days before they were tested for GABAB receptor mediated functional response. […] The clonal cell line that gave the highest peak response in the FLIPR was used in the present study.
[^35S]-GTPγS binding assays were performed at 30° C. for 45 min in membrane buffer (100 mM NaCl, 5 mM MgCl2, 1 mM EDTA, 50 mM HEPES, pH 7.4) containing 0.025 μg/μl of membrane protein (prepared from the cell lines described above) with 0.01% bovine serum albumin (fatty acid free), 10 μM GDP, 10 μM DTT and 0.53 nM [^35S]-GTPγS (Amersham-Pharmacia Biotech) in a final volume of 200 μl. Non-specific binding was determined in the presence of 20 μM GTPγS. The reaction was started by the addition of GABA at concentration between 1 mM and 0.1 nM in the presence or absence of the required concentration of PAM. The reaction was terminated by addition of ice-cold wash buffer (50 mM Tris-HCl, 5 mM MgCl2, 50 mM NaCl, pH 7.4) followed by rapid filtration under vacuum through Printed Filtermat A glass fiber filters (Wallac) (0.05% PEI treated) using a Micro 96 Harvester (Skatron Instruments). The filters were dried for 30 min at 50° C., then a paraffin scintillant pad was melted onto the filters and the bound radioactivity was determined using a 1450 Microbeta Trilux (Wallac) scintillation counter.
GABA dose-response curves in the presence and absence of test compounds were constructed using the 4-parameter logistic equation, y=ymax+((ymin−ymax)/1+(x/C)^D), where C=EC50 and D=slope factor.

T1 sequence (Q9UBS5 15-961 limits assumed): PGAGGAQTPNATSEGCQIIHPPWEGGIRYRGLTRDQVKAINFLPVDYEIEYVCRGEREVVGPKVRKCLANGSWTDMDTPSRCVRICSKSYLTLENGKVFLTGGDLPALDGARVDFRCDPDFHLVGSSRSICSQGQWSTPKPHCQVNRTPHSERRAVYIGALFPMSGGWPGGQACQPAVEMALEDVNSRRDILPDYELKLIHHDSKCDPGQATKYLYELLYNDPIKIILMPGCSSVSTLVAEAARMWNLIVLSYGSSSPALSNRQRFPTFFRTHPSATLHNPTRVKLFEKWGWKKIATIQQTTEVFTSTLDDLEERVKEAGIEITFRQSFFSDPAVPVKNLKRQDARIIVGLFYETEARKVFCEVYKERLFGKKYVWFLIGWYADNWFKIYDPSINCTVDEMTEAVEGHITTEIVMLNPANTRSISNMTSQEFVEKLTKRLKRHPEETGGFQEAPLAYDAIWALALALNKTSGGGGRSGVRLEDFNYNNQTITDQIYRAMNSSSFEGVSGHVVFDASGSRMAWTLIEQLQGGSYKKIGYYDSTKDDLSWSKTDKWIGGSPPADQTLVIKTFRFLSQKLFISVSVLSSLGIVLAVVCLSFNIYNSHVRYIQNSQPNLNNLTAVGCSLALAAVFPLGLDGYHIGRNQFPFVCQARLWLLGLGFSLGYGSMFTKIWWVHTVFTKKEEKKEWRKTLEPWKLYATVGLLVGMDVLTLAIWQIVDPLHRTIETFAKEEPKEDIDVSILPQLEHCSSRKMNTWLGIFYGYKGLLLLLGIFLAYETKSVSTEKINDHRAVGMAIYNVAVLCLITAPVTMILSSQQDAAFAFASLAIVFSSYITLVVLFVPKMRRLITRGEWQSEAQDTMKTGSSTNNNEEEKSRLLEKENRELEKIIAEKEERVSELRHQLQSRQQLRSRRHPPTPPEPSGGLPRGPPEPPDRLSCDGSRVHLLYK
T1 sequence (O75899 42-941): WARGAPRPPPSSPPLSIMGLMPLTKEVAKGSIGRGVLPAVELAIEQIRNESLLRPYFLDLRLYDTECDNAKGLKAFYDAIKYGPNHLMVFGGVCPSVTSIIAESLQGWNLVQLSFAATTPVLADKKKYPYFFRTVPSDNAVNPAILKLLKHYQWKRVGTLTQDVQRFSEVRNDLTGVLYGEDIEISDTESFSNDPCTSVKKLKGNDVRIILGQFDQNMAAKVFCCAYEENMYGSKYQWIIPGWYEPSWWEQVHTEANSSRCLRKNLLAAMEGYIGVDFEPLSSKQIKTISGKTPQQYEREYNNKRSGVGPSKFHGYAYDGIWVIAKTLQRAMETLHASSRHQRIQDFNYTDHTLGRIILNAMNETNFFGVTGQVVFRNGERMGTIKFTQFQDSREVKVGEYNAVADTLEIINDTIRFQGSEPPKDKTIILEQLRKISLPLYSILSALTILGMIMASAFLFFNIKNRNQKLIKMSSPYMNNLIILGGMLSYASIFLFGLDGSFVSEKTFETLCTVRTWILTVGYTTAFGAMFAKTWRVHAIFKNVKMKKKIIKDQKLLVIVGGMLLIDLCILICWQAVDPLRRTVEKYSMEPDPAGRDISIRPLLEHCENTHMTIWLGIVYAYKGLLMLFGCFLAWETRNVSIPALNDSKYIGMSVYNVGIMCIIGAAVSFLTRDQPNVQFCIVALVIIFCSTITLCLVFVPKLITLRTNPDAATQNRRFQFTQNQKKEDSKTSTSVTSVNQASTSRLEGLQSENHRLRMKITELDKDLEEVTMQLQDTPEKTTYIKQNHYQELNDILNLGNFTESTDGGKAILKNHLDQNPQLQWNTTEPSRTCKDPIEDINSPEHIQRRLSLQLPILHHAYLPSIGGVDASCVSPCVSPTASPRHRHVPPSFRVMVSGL

Structure (SMILES)	EC50 [µM]
CCCn1c(=O)n(Cc2ccc(F)cc2)c(=O)c2c1nc(OC)n2C [Example 79, 1-(4-Fluorobenzyl)-8-methoxy-7-methyl-3-propyl-3,7-dihydro-1H-purine-2,6-dione]	14.5
CCc1nc2c(c(=O)n(Cc3ccc(Cl)cc3)c(=O)n2CC(=O)OC)n1C [Example 11, Methyl [1-(4-chlorobenzyl)-8-ethyl-7-methyl-2,6-dioxo-1,2,6,7-tetrahydro-3H-purin-3-yl]acetate]	8.5
CCc1nc2c(c(=O)n(Cc3ccc(Cl)cc3)c(=O)n2Cc2ccc(Cl)cc2)n1C [Example 13, 1,3-Bis(4-chlorobenzyl)-8-ethyl-7-methyl-3,7-dihydro-1H-purine-2,6-dione]	5.2
CCc1nc2c(c(=O)n(Cc3ccc(Cl)c(Cl)c3)c(=O)n2CCC(C)(C)C)n1C [Example 41, 1-(3,4-Dichlorobenzyl)-3-(3,3-dimethylbutyl)-8-ethyl-7-methyl-3,7-dihydro-1H-purine-2,6-dione]	2
CCc1nc2c(c(=O)n(Cc3ccc(Cl)cc3)c(=O)n2CC2OCCO2)n1C [Example 14, 1-(4-Chlorobenzyl)-3-(1,3-dioxolan-2-ylmethyl)-8-ethyl-7-methyl-3,7-dihydro-1H-purine-2,6-dione]	12.3
CCCn1c(=O)n(Cc2ccc(Cl)cc2)c(=O)c2c1nc(CC)n2C [Example 54, 1-(4-chlorobenzyl)-8-ethyl-7-methyl-3-propyl-3,7-dihydro-1H-purine-2,6-dione]	5.89
CCc1nc2c(c(=O)n(Cc3ccc(Cl)cc3)c(=O)n2CCCO)n1C [Example 38, 1-(4-chlorobenzyl)-8-ethyl-3-(3-hydroxypropyl)-7-methyl-3,7-dihydro-1H-purine-2,6-dione]	6.8
CCCn1c(=O)n(Cc2ccc3ccccc3c2)c(=O)c2c1nc(CC)n2C [Example 58, 8-Ethyl-7-methyl-1-(2-naphthylmethyl)-3-propyl-3,7-dihydro-1H-purine-2,6-dione]	2.7
CCc1nc2c(c(=O)n(Cc3ccc(Cl)cc3)c(=O)n2Cc2scc(S(=O)(=O)C(C)C)c2Cl)n1C [Example 39, 1-(4-chlorobenzyl)-3-{[3-chloro-4-(isopropylsulfonyl)-2-thienyl]methyl}-8-ethyl-7-methyl-3,7-dihydro-1H-purine-2,6-dione]	1.8
CCCn1c(=O)n(Cc2ccc(Cl)cc2)c(=O)c2c1nc(N1CCC(OC)CC1)n2C [Example 84, 1-(4-chlorobenzyl)-8-(4-methoxypiperidin-1-yl)-7-methyl-3-propyl-3,7-dihydro-1H-purine-2,6-dione]	5.1
CCCn1c(=O)n(Cc2ccc(Cl)cc2)c(=O)c2c1nc(N1CCCCC1)n2C [Example 85, 1-(4-chlorobenzyl)-7-methyl-8-piperidin-1-yl-3-propyl-3,7-dihydro-1H-purine-2,6-dione]	1.9
CCc1nc2c(c(=O)n(Cc3ccc(Cl)cc3)c(=O)n2CC(=O)c2ccncc2)n1C [Example 7, 1-(4-Chlorobenzyl)-8-ethyl-7-methyl-3-(2-oxo-2-pyridin-4-ylethyl)-3,7-dihydro-1H-purine-2,6-dione]	7.9
CCc1nc2c(c(=O)n(Cc3ccc(Cl)cc3)c(=O)n2CCCN2CCN(c3ccccc3)CC2)n1C [Example 47, 1-(4-Chlorobenzyl)-8-ethyl-7-methyl-3-[3-(4-phenylpiperazin-1-yl)propyl]-3,7-dihydro-1H-purine-2,6-dione]	8.7
CCCn1c(=O)n(Cc2ccc(Cl)cc2)c(=O)c2c1nc(N1CCC[C@H]1COC)n2C [Example 93, 1-(4-chlorobenzyl)-8-[(2S)-2-(methoxymethyl)pyrrolidin-1-yl]-7-methyl-3-propyl-3,7-dihydro-1H-purine-2,6-dione]	7.2
CCCn1c(=O)n(Cc2ccc(Cl)cc2)c(=O)c2c1nc(CC)n2CC [Example 72, 1-(4-Chlorobenzyl)-7,8-diethyl-3-propyl-3,7-dihydro-H-purine-2,6-dione]	8.93
CCc1nc2c(c(=O)n(Cc3ccc(Cl)cc3)c(=O)n2Cc2ccc(SC(F)(F)F)cc2)n1C [Example 25, 1-(4-chlorobenzyl)-8-ethyl-7-methyl-3-{4-[(trifluoromethyl)thio]benzyl}-3,7-dihydro-1H-purine-2,6-dione]	5.3
CCc1nc2c(c(=O)n(Cc3ccc(Cl)cc3)c(=O)n2Cc2ccccn2)n1C [Example 15, 1-(4-Chlorobenzyl)-8-ethyl-7-methyl-3-(pyridin-2-ylmethyl)-3,7-dihydro-1H-purine-2,6-dione]	7.8
CCCn1c(=O)n(Cc2ccc(Cl)cc2)c(=O)c2c1nc(Br)n2C [Example 95, 8-bromo-1-(4-chlorobenzyl)-7-methyl-3-propyl-3,7-dihydro-1H-purine-2,6-dione]	4.5
CCCn1c(=O)n(Cc2ccc(Cl)c(Cl)c2)c(=O)c2c1nc(CC)n2C [Example 57, 1-(3,4-Dichlorobenzyl)-8-ethyl-7-methyl-3-propyl-3,7-dihydro-1H-purine-2,6-dione]	2.6
CCc1nc2c(c(=O)n(Cc3ccc(Cl)cc3)c(=O)n2CCCN2CCC3(CC2)OCCO3)n1C [Example 48, 1-(4-Chlorobenzyl)-3-[3-(1,4-dioxa-8-azaspiro[4.5]dec-8-yl)propyl]-8-ethyl-7-methyl-3,7-dihydro-1H-purine-2,6-dione]	12.1
CCn1c(=O)n(Cc2ccc(Cl)cc2)c(=O)c2c1nc(OC)n2-c1ccc(F)cc1 [Example 77, 1-(4-chlorobenzyl)-3-ethyl-7-(4-fluorophenyl)-8-methoxy-3,7-dihydro-1H-purine-2,6-dione]	6.64
CCc1nc2c(c(=O)n(Cc3ccc(Cl)cc3)c(=O)n2CC2COc3ccccc3O2)n1C (stereo not shown) [Example 24, 1-(4-chlorobenzyl)-3-(2,3-dihydro-1,4-benzodioxin-2-ylmethyl)-8-ethyl-7-methyl-3,7-dihydro-1H-purine-2,6-dione]	5.1
CCCn1c(=O)n(Cc2ccc(OC)cc2)c(=O)c2c1nc(CC)n2C [Example 69, 8-Ethyl-1-(4-methoxybenzyl)-7-methyl-3-propyl-3,7-dihydro-1H-purine-2,6-dione]	19.7
CCc1nc2c(c(=O)n(Cc3ccc(Cl)cc3)c(=O)n2CCCN2CCCC2)n1C [Example 46, 1-(4-chlorobenzyl)-8-ethyl-7-methyl-3-(3-pyrrolidin-1-ylpropyl)-3,7-dihydro-1H-purine-2,6-dione]	16.9
CCCn1c(=O)n(Cc2cnn(-c3ccc(Cl)cc3)c2C(F)(F)F)c(=O)c2c1nc(CC)n2C [Example 59, 1-{[1-(4-Chlorophenyl)-5-(trifluoromethyl)-1H-pyrazol-4-yl]methyl}-8-ethyl-7-methyl-3-propyl-3,7-dihydro-1H-purine-2,6-dione]	5.9
CCc1nc2c(c(=O)n(Cc3ccc(Cl)c(Cl)c3)c(=O)n2CC(=O)C(C)(C)C)n1C [Example 40, 1-(3,4-Dichlorobenzyl)-3-(3,3-dimethyl-2-oxobutyl)-8-ethyl-7-methyl-3,7-dihydro-1H-purine-2,6-dione]	0.6
CCc1nc2c(c(=O)n(Cc3ccc(Cl)cc3)c(=O)n2Cc2cccnc2)n1C [Example 18, 1-(4-Chlorobenzyl)-8-ethyl-7-methyl-3-(pyridin-3-ylmethyl)-3,7-dihydro-1H-purine-2,6-dione]	3.3
CCc1nc2c(c(=O)n(Cc3ccc(Cl)cc3)c(=O)n2CC(OC)OC)n1C [Example 52, 1-(4-chlorobenzyl)-3-(2,2-dimethoxyethyl)-8-ethyl-7-methyl-3,7-dihydro-1H-purine-2,6-dione]	8.8
